Experimental data: US10966978B2, “Dose and regimen for HDM2-p53 interaction inhibitors” (Novartis AG, priority 2016, dated 2021)
Like-named read-outs stand apart in the source and are kept apart here.

Test system: patients with advanced TP53 wild-type (WT) leukemias

COc1ncc(-c2nc3c(n2C(C)C)[C@H](c2ccc(Cl)cc2)N(c2cc(Cl)cn(C)c2=O)C3=O)c(OC)n1 [HDM201, (S)-5-(5-Chloro-1-methyl-2-oxo-1,2-dihydro-pyridin-3-yl)-6-(4-chloro-phenyl)-2-(2,4-dimethoxy-pyrimidin-5-yl)-1-isopropyl-5,6-dihydro-1H-pyrrolo[3,4-d]imidazol-4-one]
AE: Nausea (Regimen 2C N = 8, All Grades): 3 (37.5) n (%)
AE: Neutropenia/Neutrophil Count Decreased (Regimen 2C N = 8, All Grades): 4 (50.0) n (%)
AE: Oedema (Regimen 2C N = 8, All Grades): 0 n (%)
AE: Oedema Peripheral (Regimen 2C N = 8, All Grades): 0 n (%)
AE: Oral Disorder (Regimen 2C N = 8, All Grades): 0 n (%)
AE: Pain In Extremity (Regimen 2C N = 8, All Grades): 0 n (%)
AE: Pancytopenia (Regimen 2C N = 8, All Grades): 1 (12.5) n (%)
AE: Pneumonia (Regimen 2C N = 8, All Grades): 0 n (%)
AE: Pollakiuria (Regimen 2C N = 8, All Grades): 0 n (%)
AE: Pyrexia (Regimen 2C N = 8, All Grades): 0 n (%)
AE: Rash (Regimen 2C N = 8, All Grades): 0 n (%)
AE: Rash Erythematous (Regimen 2C N = 8, All Grades): 0 n (%)
AE: Rash Papular (Regimen 2C N = 8, All Grades): 0 n (%)
AE: Rectal Haemorrhage (Regimen 2C N = 8, All Grades): 0 n (%)
AE: Renal Failure (Regimen 2C N = 8, All Grades): 1 (12.5) n (%)
AE: Skin Exfoliation (Regimen 2C N = 8, All Grades): 0 n (%)
AE: Stomatitis (Regimen 2C N = 8, All Grades): 1 (12.5) n (%)
AE: Subarachnoid Haemorrhage (Regimen 2C N = 8, All Grades): 0 n (%)
AE: Thrombocytopenia/Platelet Count Decreased (Regimen 2C N = 8, All Grades): 5 (62.5) n (%)
AE: Total (Regimen 2C N = 8, All Grades): 8 (100) n (%)
AE: Tumour Lysis Syndrome (Regimen 2C N = 8, All Grades): 1 (12.5) n (%)
AE: Vomiting (Regimen 2C N = 8, All Grades): 1 (12.5) n (%)
AE: Weight Decreased (Regimen 2C N = 8, All Grades): 0 n (%)
AE: White Blood Cell Count Decreased (Regimen 2C N = 8, All Grades): 2 (25.0) n (%)
AE: Abdominal Discomfort (Regimen 2C N = 8, Grade 3/4): 0 n (%)
AE: Abdominal Pain (Regimen 2C N = 8, Grade 3/4): 0 n (%)
AE: Abdominal Pain Upper (Regimen 2C N = 8, Grade 3/4): 0 n (%)
AE: Amylase Increased (Regimen 2C N = 8, Grade 3/4): 0 n (%)
AE: Anaemia (Regimen 2C N = 8, Grade 3/4): 3 (37.5) n (%)
AE: Arthralgia (Regimen 2C N = 8, Grade 3/4): 0 n (%)
AE: Asthenia (Regimen 2C N = 8, Grade 3/4): 0 n (%)
AE: Atrial Fibrillation (Regimen 2C N = 8, Grade 3/4): 0 n (%)
AE: Atypical Pneumonia (Regimen 2C N = 8, Grade 3/4): 0 n (%)
AE: Balanitis Candida (Regimen 2C N = 8, Grade 3/4): 0 n (%)
AE: Blood Alkaline Phosphatase Increased (Regimen 2C N = 8, Grade 3/4): 0 n (%)
AE: Blood Bilirubin Increased (Regimen 2C N = 8, Grade 3/4): 0 n (%)
AE: Blood Creatinine Increased (Regimen 2C N = 8, Grade 3/4): 1 (12.5) n (%)
AE: Blood Phosphorus Increased (Regimen 2C N = 8, Grade 3/4): 0 n (%)
AE: Blood Uric Acid Increased (Regimen 2C N = 8, Grade 3/4): 0 n (%)
AE: Bone Marrow Failure (Regimen 2C N = 8, Grade 3/4): 0 n (%)
AE: C-Reactive Protein Increased (Regimen 2C N = 8, Grade 3/4): 0 n (%)
AE: Cardiac Failure (Regimen 2C N = 8, Grade 3/4): 0 n (%)
AE: Cellulitis (Regimen 2C N = 8, Grade 3/4): 0 n (%)
AE: Chronic Graft Versus Host Disease (Regimen 2C N = 8, Grade 3/4): 0 n (%)
AE: Conjunctival Haemorrhage (Regimen 2C N = 8, Grade 3/4): 0 n (%)
AE: Constipation (Regimen 2C N = 8, Grade 3/4): 0 n (%)
AE: Cough (Regimen 2C N = 8, Grade 3/4): 0 n (%)
AE: Cystitis Viral (Regimen 2C N = 8, Grade 3/4): 0 n (%)
AE: Cytomegalovirus Infection (Regimen 2C N = 8, Grade 3/4): 0 n (%)
AE: Decreased Appetite (Regimen 2C N = 8, Grade 3/4): 0 n (%)
AE: Diarrhoea (Regimen 2C N = 8, Grade 3/4): 0 n (%)
AE: Dyspepsia (Regimen 2C N = 8, Grade 3/4): 0 n (%)
AE: Dyspnoea (Regimen 2C N = 8, Grade 3/4): 0 n (%)
AE: Epistaxis (Regimen 2C N = 8, Grade 3/4): 0 n (%)
AE: Fatigue (Regimen 2C N = 8, Grade 3/4): 0 n (%)
AE: Febrile Neutropenia (Regimen 2C N = 8, Grade 3/4): 3 (37.5) n (%)
AE: Gamma-Glutamyltransferase Increased (Regimen 2C N = 8, Grade 3/4): 0 n (%)
AE: General Physical Health Deterioration (Regimen 2C N = 8, Grade 3/4): 0 n (%)
AE: Gingival Bleeding (Regimen 2C N = 8, Grade 3/4): 0 n (%)
AE: Graft Versus Host Disease (Regimen 2C N = 8, Grade 3/4): 0 n (%)
AE: Haemoglobin Decreased (Regimen 2C N = 8, Grade 3/4): 0 n (%)
AE: Headache (Regimen 2C N = 8, Grade 3/4): 0 n (%)
AE: Hyperbilirubinaemia (Regimen 2C N = 8, Grade 3/4): 0 n (%)
AE: Hyperglycaemia (Regimen 2C N = 8, Grade 3/4): 0 n (%)
AE: Hyperkalaemia (Regimen 2C N = 8, Grade 3/4): 0 n (%)
AE: Hyperphosphataemia (Regimen 2C N = 8, Grade 3/4): 0 n (%)
AE: Hypoalbuminaemia (Regimen 2C N = 8, Grade 3/4): 0 n (%)
AE: Hypocalcaemia (Regimen 2C N = 8, Grade 3/4): 0 n (%)
AE: Hypokalaemia (Regimen 2C N = 8, Grade 3/4): 0 n (%)
AE: Hypomagnesaemia (Regimen 2C N = 8, Grade 3/4): 0 n (%)
AE: Hyponatraemia (Regimen 2C N = 8, Grade 3/4): 0 n (%)
AE: Hypophosphataemia (Regimen 2C N = 8, Grade 3/4): 0 n (%)
AE: Hypotension (Regimen 2C N = 8, Grade 3/4): 0 n (%)
AE: Infection (Regimen 2C N = 8, Grade 3/4): 0 n (%)
AE: Infective Glossitis (Regimen 2C N = 8, Grade 3/4): 0 n (%)
AE: Iron Overload (Regimen 2C N = 8, Grade 3/4): 0 n (%)
AE: Leukopenia (Regimen 2C N = 8, Grade 3/4): 0 n (%)
AE: Lip Oedema (Regimen 2C N = 8, Grade 3/4): 0 n (%)
AE: Lipase Increased (Regimen 2C N = 8, Grade 3/4): 0 n (%)
AE: Macular Oedema (Regimen 2C N = 8, Grade 3/4): 0 n (%)
AE: Malaise (Regimen 2C N = 8, Grade 3/4): 0 n (%)
AE: Mouth Haemorrhage (Regimen 2C N = 8, Grade 3/4): 0 n (%)
AE: Nausea (Regimen 2C N = 8, Grade 3/4): 0 n (%)
AE: Neutropenia/Neutrophil Count Decreased (Regimen 2C N = 8, Grade 3/4): 3 (37.5) n (%)
AE: Oedema (Regimen 2C N = 8, Grade 3/4): 0 n (%)
AE: Oedema Peripheral (Regimen 2C N = 8, Grade 3/4): 0 n (%)
AE: Oral Disorder (Regimen 2C N = 8, Grade 3/4): 0 n (%)
AE: Pain In Extremity (Regimen 2C N = 8, Grade 3/4): 0 n (%)
AE: Pancytopenia (Regimen 2C N = 8, Grade 3/4): 1 (12.5) n (%)
AE: Pneumonia (Regimen 2C N = 8, Grade 3/4): 0 n (%)
AE: Pollakiuria (Regimen 2C N = 8, Grade 3/4): 0 n (%)
AE: Pyrexia (Regimen 2C N = 8, Grade 3/4): 0 n (%)
AE: Rash (Regimen 2C N = 8, Grade 3/4): 0 n (%)
AE: Rash Erythematous (Regimen 2C N = 8, Grade 3/4): 0 n (%)
AE: Rash Papular (Regimen 2C N = 8, Grade 3/4): 0 n (%)
AE: Rectal Haemorrhage (Regimen 2C N = 8, Grade 3/4): 0 n (%)
AE: Renal Failure (Regimen 2C N = 8, Grade 3/4): 1 (12.5) n (%)
AE: Skin Exfoliation (Regimen 2C N = 8, Grade 3/4): 0 n (%)
AE: Stomatitis (Regimen 2C N = 8, Grade 3/4): 0 n (%)
AE: Subarachnoid Haemorrhage (Regimen 2C N = 8, Grade 3/4): 0 n (%)
AE: Thrombocytopenia/Platelet Count Decreased (Regimen 2C N = 8, Grade 3/4): 5 (62.5) n (%)
AE: Total (Regimen 2C N = 8, Grade 3/4): 5 (62.5) n (%)
AE: Tumour Lysis Syndrome (Regimen 2C N = 8, Grade 3/4): 1 (12.5) n (%)
AE: Vomiting (Regimen 2C N = 8, Grade 3/4): 0 n (%)
AE: Weight Decreased (Regimen 2C N = 8, Grade 3/4): 0 n (%)
AE: White Blood Cell Count Decreased (Regimen 2C N = 8, Grade 3/4): 2 (25.0) n (%)
